We go through 17 molecules from patent publication US10508109B2 (priority 2015, dated 2019).

SMILES strings stand for the structures. Like-named read-outs stand apart in the source and are kept apart here.

For one experiment, the system named is CCD-18Co. Nature of the experiment: Cell-based assay, anti-proliferative activity (Cell Counting Kit-8, 72 hours). The conditions noted are these: Homo sapiens, read-out: IC50 (μM) CCD-18Co. Summed up:
(§1)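 Cells were seeded in 96-well plates and exposed to the inhibitors for 72 hours, after which growth was measured with Cell Counting Kit-8. IC50 was derived from a serial dilution series of 0, 1.5625, 3.125, 6.25, 12.5, 25, 50 and 100 micro-M.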
(In general: Tetrazolium assays rely on reduction of a dye to a coloured formazan, in cell work by metabolically active cells.)

Another experiment has as its system PC14. Described as above. As to conditions: Homo sapiens, read-out: IC50 (μM) PC14. Summed up: as §1
The subject of the next experiment is HFL1. The description is as above. As to conditions: Homo sapiens, read-out: IC50 (μM) HFL1. In outline: as §1
A further experiment concerns HCT-116. Described as above. As to conditions: Homo sapiens, read-out: IC50 (μM) HCT-116. Summed up: as §1
Another experiment deals with A549. The experiment is described as above. The conditions noted are these: Homo sapiens, read-out: IC50 (μM) A549. Summed up:
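IC50 values come from growth read-outs taken after the cells' exposure to each candidate inhibitor. Cells had been plated in 96-well microtiter plates beforehand.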

Another experiment concerns the target SUV39H2 (Homo sapiens (Human), UniProt Q9H5I1). As to conditions: read-out: IC50 (μM) Suv 39H2 assay; enzyme assay.
The mark [1] stands for this setting: CCD-18Co cells, 72 hours, Cell Counting Kit-8.
The mark [2] stands for this setting: PC-14, PC14 cells, 72 hours, Cell Counting Kit-8.
[3] abbreviates: HFL1 cells, 72 hours, Cell Counting Kit-8.
Setting [4] is: HCT-116 cells, 72 hours, Cell Counting Kit-8.
Where [5] appears, read: A549 cells, 72 hours, Cell Counting Kit-8.
The mark [6] stands for this setting: CCD-18Co cells, Cell Counting Kit-8, 72 hours.
[7] abbreviates: PC-14, PC14 cells, Cell Counting Kit-8, 72 hours.
Setting [8] is: HFL1 cells, Cell Counting Kit-8, 72 hours.
The mark [9] stands for this setting: HCT-116 cells, Cell Counting Kit-8, 72 hours.
Where [10] appears, read: A549 cells, Cell Counting Kit-8, 72 hours.

SUV39H2, sequence (Q9H5I1 whole entry): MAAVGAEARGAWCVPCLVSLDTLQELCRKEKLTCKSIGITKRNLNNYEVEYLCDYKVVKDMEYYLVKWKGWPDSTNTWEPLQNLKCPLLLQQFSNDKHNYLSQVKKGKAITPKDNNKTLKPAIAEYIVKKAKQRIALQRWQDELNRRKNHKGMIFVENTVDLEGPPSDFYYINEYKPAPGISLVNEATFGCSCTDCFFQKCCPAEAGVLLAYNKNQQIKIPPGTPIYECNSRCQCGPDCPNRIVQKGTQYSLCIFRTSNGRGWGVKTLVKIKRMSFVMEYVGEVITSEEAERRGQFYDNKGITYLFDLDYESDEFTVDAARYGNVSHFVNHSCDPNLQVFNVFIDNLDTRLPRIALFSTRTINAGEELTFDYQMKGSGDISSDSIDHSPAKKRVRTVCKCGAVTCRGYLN

Consider `COc1cc(OC)c(-c2cn3ccc(-c4ccc(C(=O)NCC5CCCN5)cc4)cc3n2)cc1Cl` (stereo not drawn) [Example 248, 4-(2-(5-chloro-2,4-dimethoxyphenyl)imidazo[1,2-a]pyridin-7-yl)-N-(pyrrolidin-2-ylmethyl)benzamide], for which the IC50 (in general, the point on the concentration scale where inhibition reaches its midpoint) is 3.1 µM with CCD-18Co (setting [1]); 2.6 µM with PC14 (setting [2]); 5.7 µM in the experiment on HFL1 (setting [3]); 2.3 µM with HCT-116 (setting [4]); 4.6 µM in the experiment with A549 (setting [5]); 0.0157 µM at SUV39H2.

For `COc1cc(OC)c(-c2cn3ccc(N4CCN(S(C)(=O)=O)CC4)nc3n2)cc1Cl` [Example 177, 2-(5-chloro-2,4-dimethoxyphenyl)-7-(4-(methylsulfonyl)piperazin-1-yl)-imidazo[1,2-a]pyrimidine], the IC50 was 11 µM with CCD-18Co (setting [6]); 2.5 µM in the experiment on PC14 (setting [7]); 8 µM in the experiment on HFL1 (setting [8]); 6 µM in the experiment on HCT-116 (setting [9]); 3.8 µM with A549 (setting [10]); 0.0408 µM at SUV39H2.

As to `COc1cc(OCCCN(C)C)c(-c2cn3ccc(N4CCCN(S(=O)(=O)C5CC5)CC4)cc3n2)cc1Cl` [Example 212, 3-(4-chloro-2-(7-(4-(cyclopropylsulfonyl)-1,4-diazepan-1-yl)imidazo[1,2-a]-pyridin-2-yl)-5-methoxyphenoxy)-N,N-dimethylpropan-1-amine], the IC50 in the experiment with CCD-18Co (setting [6]) turned out to be 6 µM; in the experiment with PC14 (setting [7]), 4.2 µM; in the experiment on HFL1 (setting [8]) it was 5.8 µM; in the experiment on HCT-116 (setting [9]), 8.6 µM; in the experiment on A549 (setting [10]) it was 8.1 µM; on SUV39H2, 0.0161 µM.

Turning to `COc1cc(OC)c(-c2cn3ccc(N4CCC(NS(=O)(=O)C5CC5)C4)cc3n2)cc1Cl` (stereo not drawn) [Example 63, N-(1-(2-(5-chloro-2,4-dimethoxyphenyl)imidazo[1,2-a]pyridine-7-yl)pyrrolidin-3-yl)cyclopropanesulfonamide], the IC50 was 3.8 µM in the experiment on CCD-18Co (setting [6]); 2.1 µM with PC14 (setting [7]); 1.7 µM in the experiment on HFL1 (setting [8]); 1.6 µM with HCT-116 (setting [9]); 3 µM in the experiment with A549 (setting [10]); 0.00395 µM at SUV39H2.

Regarding `COc1cc(OC)c(-c2cn3ccc(N4CCNC4=O)cc3n2)cc1Cl` [Example 138, 1-(2-(5-chloro-2,4-dimethoxyphenyl)imidazo[1,2-a]pyridin-7-yl)-imidazolidin-2-one], the IC50 with CCD-18Co (setting [6]) worked out at 2.2 µM; in the experiment with PC14 (setting [7]), 3.6 µM; in the experiment with HFL1 (setting [8]), 5.5 µM; in the experiment on HCT-116 (setting [9]), 16 µM; with A549 (setting [10]), 5.2 µM; on SUV39H2, 0.0201 µM.

In the case of `COc1cc(OC)c(-c2cn3ccc(N4CCN(C(=O)C5CCCC5)CC4)cc3n2)cc1Cl` [Example 241, (4-(2-(5-chloro-2,4-dimethoxyphenyl)imidazo[1,2-a]pyridine-7-yl)piperazin-1-yl)(cyclopentyl)methanone], the IC50 in the experiment with CCD-18Co (setting [1]) worked out at 2.5 µM; with PC14 (setting [2]), 1.6 µM; in the experiment on HFL1 (setting [3]) it was 1.5 µM; in the experiment with HCT-116 (setting [4]), 2.4 µM; with A549 (setting [5]) it was 2.3 µM; at SUV39H2, 0.00768 µM.

Turning to `CCOC(=O)CCN1CCN(c2ccn3cc(-c4cc(Cl)c(OC)cc4OC)nc3c2)CC1` [Example 132, ethyl 3-(4-(2-(5-chloro-2,4-dimethoxyphenyl)imidazo[1,2-a]pyridin-7-yl)piperazin-1-yl)propanoate], the IC50 with CCD-18Co (setting [6]) turned out to be 22 µM; with PC14 (setting [7]) it was 9 µM; with HFL1 (setting [8]) it was 7.6 µM; in the experiment with HCT-116 (setting [9]) it was 9.8 µM; in the experiment with A549 (setting [10]) it was 11 µM; at SUV39H2 it was 0.0124 µM.

On to `COc1cc(OCCCN(C)C)c(-c2cn3ccc(N4CCN(C(=O)C(C)(C)C)CC4)cc3n2)cc1Cl` [Example 156, 1-(4-(2-(5-chloro-2-(3-(dimethylamino)propoxy)-4-methoxyphenyl)imidazo[1,2-a]pyridine-7-yl)piperazin-1-yl)-2,2-dimethylpropan-1-one], for which the IC50 with CCD-18Co (setting [6]) is 7.2 µM; with PC14 (setting [7]), 5.8 µM; in the experiment on HFL1 (setting [8]), 4.4 µM; in the experiment with HCT-116 (setting [9]) it was 6.2 µM; in the experiment with A549 (setting [10]), 6.3 µM; at SUV39H2, 0.0344 µM.

With `COc1cc(OCCCN(C)C)c(-c2cn3ccc(N4CCCN(S(C)(=O)=O)CC4)cc3n2)cc1Cl` [Example 213, 3-(4-chloro-2-(7-(4-(methylsulfonyl)-1,4-diazepan-1-yl)imidazo-[1,2-a]pyridin-2-yl)-5-methoxyphenoxy)-N,N-dimethylpropan-1-amine], the IC50 is 10 µM in the experiment on CCD-18Co (setting [1]); 9.1 µM with PC14 (setting [2]); 7.4 µM in the experiment with HFL1 (setting [3]); 5.5 µM in the experiment on HCT-116 (setting [4]); 10 µM in the experiment with A549 (setting [5]); 0.0145 µM on SUV39H2.

`CCOC(=O)CCN1CC=C(c2ccn3cc(-c4cc(Cl)c(OC)cc4OC)nc3c2)CC1` [Example 140, ethyl 3-(4-(2-(5-chloro-2,4-dimethoxyphenyl)imidazo[1,2-a]pyridin-7-yl)-5,6-dihydropyridin-1(2H)-yl)propanoate]: the IC50 is 56 µM in the experiment on CCD-18Co (setting [6]); 12 µM in the experiment with PC14 (setting [7]); 27 µM with HFL1 (setting [8]); 16 µM in the experiment with HCT-116 (setting [9]); 25 µM with A549 (setting [10]); 0.0578 µM on SUV39H2.

For the molecule `COc1cc(OC)c(-c2cn3ccc(N[C@H]4CC[C@H](NCc5ccccc5)CC4)cc3n2)cc1Cl` [Example 291, N^1-benzyl-N^4-(2-(5-chloro-2,4-dimethoxyphenyl)imidazo[1,2-a]pyridin-7-yl)-trans-cyclohexane-1,4-diamine], the IC50 was 0.76 µM with CCD-18Co (setting [1]); 0.71 µM with PC14 (setting [2]); 0.93 µM with HFL1 (setting [3]); 0.67 µM with HCT-116 (setting [4]); 0.72 µM in the experiment on A549 (setting [5]); 0.041 µM on SUV39H2.

As to `COc1cc(OC)c(-c2cn3ccc(-c4ccc(C(=O)NC5CCNCC5)cc4)cc3n2)cc1Cl` [Example 268, 4-(2-(5-chloro-2,4-dimethoxyphenyl)imidazo[1,2-a]pyridin-7-yl)-N-(piperidin-4-yl)benzamide], the IC50 in the experiment with CCD-18Co (setting [1]) was determined as 4.3 µM; in the experiment with PC14 (setting [2]) it was 3 µM; with HFL1 (setting [3]) it was 3.8 µM; with HCT-116 (setting [4]), 2.8 µM; in the experiment with A549 (setting [5]), 4.3 µM; on SUV39H2, 0.0383 µM.

For `COc1cc(OC)c(-c2cn3ccc(-c4ccc(C(=O)O)cc4)cc3n2)cc1Cl` [Example 246, 4-(2-(5-chloro-2,4-dimethoxyphenyl)imidazo[1,2-a]pyridin-7-yl)benzoic acid], the IC50 was found to be 10 µM in the experiment on CCD-18Co (setting [1]); 10 µM in the experiment with PC14 (setting [2]); 10 µM with HFL1 (setting [3]); 10 µM in the experiment on HCT-116 (setting [4]); 10 µM in the experiment on A549 (setting [5]); 0.0143 µM on SUV39H2.

With `COc1cc(C)c(-c2cn3ccc(N4CCN(S(=O)(=O)C5CC5)C(CO)C4)cc3n2)cc1Cl` (stereo not drawn) [Example 262, (4-(2-(5-chloro-4-methoxy-2-methylphenyl)imidazo[1,2-a]pyridin-7-yl)-1-(cyclopropylsulfonyl)piperazin-2-yl)methanol], the IC50 turned out to be 5.5 µM in the experiment on CCD-18Co (setting [1]); 1.1 µM with PC14 (setting [2]); 3.2 µM in the experiment on HFL1 (setting [3]); 3.2 µM in the experiment with HCT-116 (setting [4]); 2.4 µM in the experiment with A549 (setting [5]); 0.0453 µM on SUV39H2.

In the case of `COc1cc(OC)c(-c2cn3ccc(N4CCC(NC(=O)OC(C)(C)C)C4)cc3n2)cc1Cl` (stereo not drawn) [Example 23, tert-butyl{1-[2-(5-chloro-2,4-dimethoxyphenyl)imidazo[1,2-a]pyridin-7-yl]pyrrolidin-3-yl}carbamate], the IC50 came to 2.8 µM in the experiment with CCD-18Co (setting [6]); 1.7 µM in the experiment on PC14 (setting [7]); 1.2 µM with HFL1 (setting [8]); 1.8 µM in the experiment on HCT-116 (setting [9]); 2.4 µM with A549 (setting [10]); 0.00635 µM at SUV39H2.

On to `COc1cc(OC)c(-c2cn3ccc(N4CCN(P(=O)(OC)OC)CC4)cc3n2)cc1Cl` [Example 203, dimethyl {4-[2-(5-chloro-2,4-dimethoxyphenyl)imidazo[1,2-a]pyridin-7-yl]piperazin-1-yl}phosphonate], for which the IC50 was found to be 6 µM in the experiment on CCD-18Co (CCD-18Co, 72 h); 1.8 µM in the experiment on PC14 (PC-14, 72 h); 4 µM in the experiment on HFL1 (HFL1, 72 h); 5.1 µM in the experiment with HCT-116 (HCT-116, 72 h); 3.9 µM in the experiment on A549 (A549, 72 h); 0.00177 µM on SUV39H2.

As to `COc1cc(OC)c(-c2cn3ccc(N4CCN(C(=O)C5CC5)CC4)cc3n2)cc1Cl` [Example 238, (4-(2-(5-chloro-2,4-dimethoxyphenyl)imidazo[1,2-a]pyridine-7-yl)piperazin-1-yl)(cyclopropyl)methanone], the IC50 in the experiment on CCD-18Co (setting [1]) was 3 µM; in the experiment on PC14 (setting [2]), 1.6 µM; in the experiment on HFL1 (setting [3]) it was 2.4 µM; in the experiment on HCT-116 (setting [4]) it was 2.9 µM; in the experiment on A549 (setting [5]) it was 2.5 µM; at SUV39H2, 0.00416 µM.
